Source: patent publication US20120142771A1, “BIPHENYLACETAMIDE DERIVATIVE” (Dainippon Sumitomo Pharma Co., Ltd., priority 2008, published 2012)

Legend:
[1] = test system: subcutaneously pentetrazol-injected model (scPTZ); experiment: Subcutaneously pentetrazol-injected model (scPTZ) test; type: in vivo, mice; settings: pentetrazol 85 mg/kg s.c. after 1 hour; for responders at 50 mg/kg / responders at 100 mg/kg: Mus musculus, po, 1 h, read-out: scPTZ (positive number/tested number) (converted); for responders at 50 mg/kg: 50 mg/kg oral; for anticonvulsant action in subcutaneously pentetrazol-injected model (scPTZ) test: mice, oral 50 or 100 mg/kg
Source text: In order to evaluate the antiepileptic activity of each drug, maximum electroshock seizure (MES) model, subcutaneously pentetrazol-injected model (scPTZ), and amygdala kindling model in rats were used because they show a good clinical prediction. […] Test with Subcutaneously Pentetrazol-Injected Model (scPTZ) Similar to Test 1, Test 2 evaluates the anticonvulsant action of medicaments. However, unlike Test 1, animal model used herein represents the clinical phenotypes of generalized absence seizure and myoclonic seizure. Test compounds (50 or 100 mg/kg) were orally administered to Slc: ddY male mice (3 mice in each group, body weight 20-30 g). After an hour, pentetrazol (85 mg/kg) was subcutaneously administered. […] To the control mice, 0.5% tragacanth solution or 0.5% methylcellulose solution was administered.

[2] = test system: maximum electroshock seizure (MES) model; experiment: Maximum electroshock seizure (MES) model test; type: in vivo, mice; settings: for responders at 50 mg/kg / responders at 100 mg/kg: Mus musculus, po, 1 h, read-out: MES (positive number/tested number) (converted); for responders at 50 mg/kg: 50 mg/kg oral; for anticonvulsant action in maximum electroshock seizure (MES) model test: mice, oral 50 or 100 mg/kg, 1 hour after administration
Source text: In order to evaluate the antiepileptic activity of each drug, maximum electroshock seizure (MES) model, subcutaneously pentetrazol-injected model (scPTZ), and amygdala kindling model in rats were used because they show a good clinical prediction.
Test 1: Test with Maximum Electroshock Seizure (MES) Model
Test 1 evaluates the anticonvulsant action of medicaments. Animal model used herein represents the clinical phenotypes of generalized tonic seizure and secondarily generalized tonic-clonic seizure. Test compounds (50 or 100 mg/kg) were orally administered to Slc: ddY male mice (3 mice in each group, body weight 20-30 g). After an hour of administration, their corneas were electrically stimulated (60 Hz, 25 mA, 0.2 second) to induce tonic convulsion (tonic extensor in their hind limbs). […] To the control mice, 0.5% tragacanth solution or 0.5% methylcellulose solution was administered.

[3] = Slc: ddY male mice, 3 per group, observed 30 minutes for clonic convulsion
[4] = 100 mg/kg oral, Slc: ddY male mice, 3 per group, observed 30 minutes for clonic convulsion
[5] = Slc: ddY male mice, 3 per group, electrical stimulation 1 hour after administration, inhibition of hind limb extension
[6] = 100 mg/kg oral, Slc: ddY male mice, 3 per group, electrical stimulation 1 hour after administration, inhibition of hind limb extension

Compound | responders at 50 mg/kg [1, 3] [%] | responders at 100 mg/kg [1, 4] [%] | responders at 50 mg/kg [2, 5] [%] | responders at 100 mg/kg [2, 6] [%] | anticonvulsant action in subcutaneously pentetrazol-injected model (scPTZ) test [1] | anticonvulsant action in maximum electroshock seizure (MES) model test [2] | scPTZ (positive number/tested number) [1, 4] | MES (positive number/tested number) [2, 6]
NC(=O)Cc1ccccc1-c1ccc(C(F)(F)F)cc1Cl [Example 84, 2-[2′-chloro-4′-(trifluoromethyl)biphenyl-2-yl]acetamide] | 33.3 | 66.7 | 0 | 66.7 |  |  |  | 
NC(=O)Cc1ccccc1-c1cccc(Cl)c1F [Example 85] |  | 33.3 |  | 100 |  |  |  | 
NC(=O)Cc1ccccc1-c1cc(Cl)ccc1F [Example 87, 2-(5′-chloro-2′-fluorobiphenyl-2-yl)acetamide] | 0 | 66.7 | 33.3 | 100 |  |  |  | 
NC(=O)Cc1ccccc1-c1ccc(F)c(F)c1F [Example 89, 2-(2′,3′,4′-trifluorobiphenyl-2-yl)acetamide] | 33.3 | 66.7 | 0 | 100 |  |  |  | 
NC(=O)Cc1ccccc1-c1cc(F)c(F)c(F)c1 [Example 90, 2-(3′,4′,5′-trifluorobiphenyl-2-yl)acetamide] | 66.7 | 66.7 | 66.7 | 66.7 | anticonvulsant action was observed | anticonvulsant action was observed |  | 
CS(=O)(=O)c1ccc(-c2ccccc2CC(N)=O)cc1 [Example 92] |  |  |  |  |  |  | 1/3 | 0/3
NC(=O)Cc1ccccc1-c1cc(Cl)ccc1Cl [Example 95, 2-(2′,5′-dichlorobiphenyl-2-yl)acetamide] | 0 | 100 | 33.3 | 66.7 |  |  |  | 
NC(=O)Cc1ccccc1-c1cc(C(F)(F)F)ccc1Cl [Example 96] |  | 66.7 |  | 33.3 |  |  |  | 
CNC(=O)Cc1ccccc1-c1ccc(C(F)(F)F)cc1F [Example 97] |  | 33.3 | 33.3 | 66.7 |  |  |  | 
CNC(=O)Cc1ccccc1-c1cccc(C(F)(F)F)c1F [Example 98] |  | 0 | 0 | 66.7 |  |  |  | 
CNC(=O)Cc1ccccc1-c1cccc(OC(F)(F)F)c1 [Example 99, N-methyl-2-[3′-(trifluoromethoxy)biphenyl-2-yl]acetamide] |  | 33.3 | 66.7 | 100 |  |  |  | 
CNC(=O)Cc1ccccc1-c1cccc(SC)c1 [Example 100] |  | 100 |  | 0 |  |  |  | 
CNC(=O)Cc1ccccc1-c1cc(F)ccc1C(F)(F)F [Example 101] |  | 0 |  | 100 |  |  |  | 
CNC(=O)Cc1ccccc1-c1cc(F)cc(C(F)(F)F)c1 [Example 102] |  | 66.7 |  | 0 |  |  |  | 
CNC(=O)Cc1ccccc1-c1ccc(OC(F)(F)F)cc1 [Example 103] |  | 33.3 |  | 100 |  |  |  | 
CNC(=O)Cc1ccccc1-c1ccc(F)cc1C(F)(F)F [Example 104] |  | 0 |  | 100 |  |  |  | 
CNC(=O)Cc1ccccc1-c1ccc(Cl)cc1C(F)(F)F [Example 105] |  | 66.7 |  | 0 |  |  |  | 
N#Cc1ccc(-c2ccccc2CC(N)=O)c(F)c1 [Example 106] |  | 66.7 |  | 0 |  |  |  | 
N#Cc1ccc(Cl)cc1-c1ccccc1CC(N)=O [Example 107] |  | 100 |  | 0 |  |  |  | 
N#Cc1c(-c2ccccc2CC(N)=O)cccc1C(F)(F)F [Example 108] |  | 66.7 |  | 0 |  |  |  | 
NC(=O)Cc1cc(Cl)ccc1-c1ccc(Cl)cc1 [Example 109, 2-(4,4′-dichlorobiphenyl-2-yl)acetamide] | 66.7 | 100 | 100 | 100 | anticonvulsant action was observed | anticonvulsant action was observed |  | 
NC(=O)Cc1cc(F)c(F)cc1-c1ccccc1 [Example 110] |  | 33.3 | 0 | 66.7 |  |  |  | 

Compound | responders at 50 mg/kg [1, 3] [%] | responders at 100 mg/kg [1, 4] [%] | responders at 50 mg/kg [2, 5] [%] | responders at 100 mg/kg [2, 6] [%] | anticonvulsant action in subcutaneously pentetrazol-injected model (scPTZ) test [1] | anticonvulsant action in maximum electroshock seizure (MES) model test [2] | scPTZ (positive number/tested number) [1, 4] | MES (positive number/tested number) [2, 6]
Cc1ccc(-c2ccccc2)c(CC(N)=O)c1 [Example 111] | 33.3 | 66.7 |  | 0 |  |  |  | 
NC(=O)Cc1ccc([N+](=O)[O-])cc1-c1ccccc1 [Example 112] | 33.3 | 66.7 |  | 33.3 |  |  |  | 
NC(=O)Cc1ccc([N+](=O)[O-])cc1-c1ccccc1F [Example 113, 2-(2′-fluoro-5-nitrobiphenyl-2-yl)acetamide] |  | 33.3 | 66.7 | 100 |  |  |  | 
NC(=O)Cc1cc(F)ccc1-c1ccc(F)cc1 [Example 114, 2-(4,4′-difluorobiphenyl-2-yl)acetamide] |  | 33.3 | 100 | 100 |  |  |  | 
CNC(=O)Cc1cc(F)ccc1-c1ccc(F)cc1 [Example 115, 2-(4,4′-difluorobiphenyl-2-yl)-N-methylacetamide] |  | 0 | 100 | 100 |  |  |  | 
NC(=O)Cc1cc(C(F)(F)F)ccc1-c1ccccc1 [Example 116] | 33.3 | 66.7 |  | 0 |  |  |  | 
CNC(=O)Cc1cc(C(F)(F)F)ccc1-c1ccccc1 [Example 117] | 33.3 | 66.7 |  | 0 |  |  |  | 
NC(=O)Cc1c(F)cccc1-c1ccccc1 [Example 118, 2-(3-fluorobiphenyl-2-yl)acetamide] |  | 33.3 | 100 | 100 |  |  |  | 
CNC(=O)Cc1c(F)cccc1-c1ccccc1 [Example 119, 2-(3-fluorobiphenyl-2-yl)-N-methylacetamide] |  | 0 | 100 | 100 |  |  |  | 
NC(=O)Cc1ccc(F)cc1-c1cccc(F)c1 [Example 120] |  | 33.3 | 0 | 100 |  |  |  | 
CNC(=O)Cc1ccc(F)cc1-c1cccc(F)c1 [Example 121] |  | 33.3 | 0 | 100 |  |  |  | 
NC(=O)Cc1ccc(F)cc1-c1ccc(F)cc1 [Example 122] | 0 | 66.7 |  | 0 |  |  |  | 
NC(=O)Cc1ccc(Cl)cc1-c1ccccc1 [Example 123] |  | 33.3 |  | 100 |  |  |  | 
CNC(=O)Cc1ccc(Cl)cc1-c1ccccc1 [Example 124, 2-(5-chlorobiphenyl-2-yl)-N-methylacetamide] | 0 | 100 | 0 | 100 |  |  |  | 
NC(=O)Cc1ccc(Cl)cc1-c1ccccc1F [Example 125, 2-(5-chloro-2′-fluorobiphenyl-2-yl)acetamide] | 33.3 | 66.7 | 66.7 | 100 |  |  |  | 
CNC(=O)Cc1ccc(Cl)cc1-c1ccccc1F [Example 126, 2-(5-chloro-2′-fluorobiphenyl-2-yl)-N-methylacetamide] | 66.7 | 100 | 0 | 66.7 |  |  |  | 
NC(=O)Cc1ccc(Cl)cc1-c1cccc(Cl)c1 [Example 127] |  | 33.3 |  | 66.7 |  |  |  | 
CNC(=O)Cc1ccc(Cl)cc1-c1cccc(Cl)c1 [Example 128] |  | 0 |  | 66.7 |  |  |  | 
NC(=O)Cc1cc(Cl)ccc1-c1ccc(F)cc1 [Example 129] |  | 33.3 |  | 100 |  |  |  | 
CNC(=O)Cc1cc(Cl)ccc1-c1ccc(F)cc1 [Example 130] |  | 0 |  | 100 |  |  |  | 
NC(=O)Cc1cc(F)ccc1-c1ccc(Cl)cc1 [Example 131] |  | 0 |  | 100 |  |  |  | 
